Laboratory results published in patent US20240360194A1, “New Peptides as Potent and Selective GIP Receptor Agonists” (Sanofi, priority 2021, published 2024).
Read-outs that look alike come from different tables or passages of the source. Values belong to the molecule of their own block, whether it stands above or below them. Numbered stars: 1 amine (or outer) side, 2 acyl side, 3 side chain; on linkers, the order of the positions; unused ones are H or OH. Square brackets hold non-standard residues; d marks the D form. Side chains are listed from the residue outwards. Peptide text beside a SMILES is read from it. * marks the point of attachment. C18 diacid = O=C(O)CCCCCCCCCCCCCCCCC(=O)*; γGlu = O=C(O)[C@H](CCC(=O)[*:2])N[*:1]; AEEA = NCCOCCOCC(=O)O; Aib = CC(C)(N)C(=O)O

What was measured:
[1] = molecular target: T1, human GIP receptor (hGIPR) (Homo sapiens, UniProt P48546); assay: In vitro cellular cAMP assay for GIP receptor efficacy (HEK-293 cell line over-expressing receptor); type: cell-based; details: EC50 hGIPR 0.1% BSA, HEK-293, 0.1% BSA
T1 sequence (P48546 22-466): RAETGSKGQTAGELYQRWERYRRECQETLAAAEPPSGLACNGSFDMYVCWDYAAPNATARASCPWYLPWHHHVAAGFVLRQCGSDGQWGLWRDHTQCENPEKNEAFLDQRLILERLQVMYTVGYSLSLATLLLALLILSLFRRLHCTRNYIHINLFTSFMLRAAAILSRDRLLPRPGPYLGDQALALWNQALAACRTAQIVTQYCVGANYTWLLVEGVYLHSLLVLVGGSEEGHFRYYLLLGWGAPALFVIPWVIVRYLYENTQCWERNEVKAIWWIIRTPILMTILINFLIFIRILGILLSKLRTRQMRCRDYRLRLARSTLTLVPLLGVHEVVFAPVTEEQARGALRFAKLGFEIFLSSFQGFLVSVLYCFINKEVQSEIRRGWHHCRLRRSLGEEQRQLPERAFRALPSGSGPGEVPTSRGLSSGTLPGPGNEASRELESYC

[2] = Pharmacokinetic evaluation in mice; type: in vivo, female C57Bl/6 mice; details: female, C57Bl/6, mouse
Protocol: Compounds were administered in a suitable buffer system, e.g. PBS buffer solution at pH7.4 or DPBS solution at concentrations of 0.05, 0.1, 0.5 or 1 mg/ml depending on dose, species and administration volume. Female C57Bl/6 mice were dosed 0.25 mg/kg, 0.5 mg/kg or 1 mg/kg intravenously (i.v.) or subcutaneously (s.c.). The mice were sacrificed, and blood samples were collected after 0.08, 0.25, 0.5, 1, 2, 4, 8, 24, 32, and 48 h post i.v. application and 0.25, 0.5, 1, 2, 4, 8, 24, 32, and 48 h post s.c. application, respectively. Plasma samples were analysed after protein precipitation via liquid chromatography mass spectrometry (LC/MS). PK parameters and half-life were calculated using Phoenix-WinNonlin 8.1 using a non-compartmental model and linear trapezoidal interpolation calculation. Pharmacokinetic profiles were determined as described in Methods.

C57Bl/6 mice = assay: Acute effects after s.c. treatment on blood glucose in an intraperitoneal glucose tolerance test (ipGTT); type: in vivo, male C57Bl/6NCrl mice; details: for Blood glucose concentration AUC / Incremental blood glucose concentration AUCi: mean ± SEM; for Incremental blood glucose concentration AUCi: baseline corrected; for minimal effective dose for improvement of i.p. glucose tolerance: single s.c. dose, C57Bl/6NCrl mice, vs. vehicle
Text: Acute Effects after Subcutaneous (s.c.) Treatment on Blood Glucose in an Intraperitoneal (i.p.) Glucose Tolerance Test (ipGTT) in Healthy, Male C57Bl/6 Mice
Healthy, normoglycemic male C57Bl/6NCrl mice were ordered in an age of 9-10 weeks with an approximate body weight (BW) of 24-26 g at Charles River Laboratories Deutschland GmbH, 97633 Sulzfeld, Germany. Mice were shipped grouped housed (N=4 per cage), acclimatized for one week and remained grouped housed throughout the entire study. Mice were housed under vivarium conditions that included a 12 h light/dark cycle (light phase 06:00 AM-06:00 PM), mean room temperature of 22±2° C. and a relative mean humidity of 55±10%. All animals had free access to food (Ssniff R/M-H diet) and water prior to study start. At study start mice were between 10-11 weeks old.
The primary objective of the study was to investigate the compound-induced lowering of the blood glucose excursion and improvement of glucose tolerance in a mouse ipGTT setting and therefore the primary parameters included blood glucose, delta blood glucose (normalized to the time point just prior to the i.p. glucose challenge, t=0 h) and their respective calculated area under curve (AUC) values. The study was performed as an acute, single dosing study with 6 groups and the male animals were randomly divided to groups of 7-8 mice per group. Dose-dependent pharmacodynamic blood glucose lowering efficacy of the GIPR agonist was analyzed with s.c. injections 6 h before the i.p. glucose load in the dose range from 3 up to 100 nmol/kg and compared to the vehicle group as well as the semaglutide positive control at a dose of 10 nmol/kg.
In more detail, mice were fed overnight and on the following morning brought to the lab with food removed but ad libitum access to water. Blood samplings (5 μl) were performed at: −6.5, −0.5, 0, 0.17, 0.5, 1, 1.5, 2 and 3 h before and after the glucose bolus of 1 g glucose per kg BW i.p. given at time point t=0 h. On time point t=0.17 h an additional K-EDTA plasma sample from 60-80 μl blood was taken for plasma insulin analysis. Blood was withdrawn from the tip of the tail. The GIPR agonist and semaglutide were dissolved in 10 mM phosphate buffer pH 7.4 with 2.3% glycerol and 0.01% polysorbat 20 (vehicle) and s.c. treatment was performed −6 h before the glucose load (t=0 h) using an injection volume of 5 ml/kg. The injection solutions were freshly prepared prior to the experiment using sterile filtered vehicle solution. Blood glucose was determined enzymatically (Gluco-quant® Glucose/HK kit on Roche/Hitachi 912). Plasma insulin was determined using a mouse/rat insulin sandwich immunoassay kit from Meso Scale Discovery.
All data were collected using Microsoft Excel. None of the data were collected online. The results are expressed as means±standard error of the mean (SEM). As primary study parameters, blood glucose, baseline (time point t=0 h) subtracted delta blood glucose and their respective calculated area under curve (AUC) values were determined.
The statistical analysis of the ipGTT blood glucose excursion data response following subcutaneous compound or vehicle treatment was performed on the calculated AUC values of blood glucose raw data as well as the calculated AUC values for baseline subtracted delta blood glucose data. In a first step the Levene's test was used to test for equality of variances between groups. […] Where Levene's test was not significant (p>0.05) ANOVA was conducted without prior rank transformation. In a second step a One-way ANOVA analysis for factor treatment followed by Dunnett's multiple comparisons test vs. vehicle group was used to test for statistical differences. All analyses were performed using SAS (version 9.4) under Linux via the interface software EverSt@t V6.1.
Male C57Bl/6NCrl mice were fed overnight and on the following morning brought to the lab with food removed but adlibitum access to water. […]

EC50 [1]: 5.93 pM | AUC(0-t) ([2]; plasma, iv, mice, 0.25 mg/kg i.v., read-out: AUClast): 20800 ng·h/mL | clearance ([2]; plasma, iv, mice, 0.25 mg/kg i.v., read-out: Cl (converted)): 0.198 mL/min/kg | Cmax ([2]; plasma, iv, mice, 0.25 mg/kg i.v., read-out: Cmax): 3470 ng/mL | half-life ([2]; plasma, iv, mice, 0.25 mg/kg i.v., read-out: T1/2 (converted)): 7.9 h | AUC(0-t) ([2]; plasma, sc, mice, 0.5 mg/kg s.c., read-out: AUClast): 37500 ng·h/mL | Cmax ([2]; plasma, sc, mice, 0.5 mg/kg s.c., read-out: Cmax): 2390 ng/mL | bioavailability ([2]; plasma, sc, mice, 0.5 mg/kg s.c., read-out: F): 91% | half-life ([2]; plasma, sc, mice, 0.5 mg/kg s.c., read-out: T1/2 (converted)): 8.21 h
SMILES: CC[C@H](C)[C@H](NC(=O)[C@H](CCCNC(=N)N)NC(=O)[C@H](CC(=O)O)NC(=O)[C@H](CCCCNC(=O)COCCOCCNC(=O)COCCOCCNC(=O)CC[C@H](NC(=O)CCCCCCCCCCCCCCCCC(=O)O)C(=O)O)NC(=O)C(C)(C)NC(=O)[C@@H](NC(=O)[C@H](CO)NC(=O)[C@H](CC(C)C)NC(=O)[C@H](CC(=O)O)NC(=O)[C@H](CO)NC(=O)[C@@H](NC(=O)[C@H](Cc1ccccc1)NC(=O)[C@@H](NC(=O)CNC(=O)[C@H](CCC(=O)O)NC(=O)C(C)(C)NC(=O)[C@@H](N)Cc1ccc(O)cc1)[C@@H](C)O)[C@@H](C)CC)[C@@H](C)CC)C(=O)N[C@@H](Cc1c[nH]cn1)C(=O)N[C@@H](CCC(N)=O)C(=O)NC(C)(C)C(=O)N[C@@H](CCC(=O)O)C(=O)N[C@@H](Cc1ccccc1)C(=O)N[C@H](C(=O)N[C@@H](CCC(=O)O)C(=O)N[C@@H](Cc1c[nH]c2ccccc12)C(=O)N[C@@H](CC(C)C)C(=O)N[C@@H](CC(C)C)C(=O)N[C@@H](C)C(=O)N[C@@H](CCC(N)=O)C(=O)N[C@@H](CCCNC(=N)N)C(=O)NCC(N)=O)[C@@H](C)CC [SEQ ID NO: 6, H2N-Y-Aib-E-G-T-F-I-S-D-L-S-I-Aib-K[{AEEA}2-gGlu-C18OH]-D-R-I-H-Q-Aib-E-F-I-E-W-L-L-A-Q-R-G-NH2]
Blood glucose concentration AUC (C57Bl/6 mice; Example 13 study, 3 nmol/kg s.c. 6 h before i.p. glucose, vehicle 23.20): +21.51 ± 0.580 mmol/L* 0-2 h | Incremental blood glucose concentration AUCi (C57Bl/6 mice; Example 13 study, 3 nmol/kg s.c., vehicle 5.50): +3.85 ± 0.438 mmol/L* 0-2 h | Blood glucose concentration AUC (C57Bl/6 mice; Example 13 study, 10 nmol/kg s.c. 6 h before i.p. glucose, vehicle 23.20): +19.37 ± 0.309 mmol/L* 0-2 h | Incremental blood glucose concentration AUCi (C57Bl/6 mice; Example 13 study, 10 nmol/kg s.c., vehicle 5.50): +3.84 ± 0.240 mmol/L* 0-2 h | Blood glucose concentration AUC (C57Bl/6 mice; Example 13 study, 30 nmol/kg s.c. 6 h before i.p. glucose, vehicle 23.20): +17.22 ± 0.453 mmol/L* 0-2 h | Incremental blood glucose concentration AUCi (C57Bl/6 mice; Example 13 study, 30 nmol/kg s.c., vehicle 5.50): +2.87 ± 0.382 mmol/L* 0-2 h | Blood glucose concentration AUC (C57Bl/6 mice; Example 13 study, 100 nmol/kg s.c. 6 h before i.p. glucose, vehicle 23.20): +15.35 ± 0.308 mmol/L* 0-2 h | Incremental blood glucose concentration AUCi (C57Bl/6 mice; Example 13 study, 100 nmol/kg s.c., vehicle 5.50): +1.21 ± 0.361 mmol/L* 0-2 h | minimal effective dose for improvement of i.p. glucose tolerance (C57Bl/6 mice): 10 to 30 nmol/kg

SMILES: CC[C@H](C)[C@H](NC(=O)[C@H](Cc1ccccc1)NC(=O)[C@H](CCC(=O)O)NC(=O)[C@H](CCC(=O)O)NC(=O)[C@H](CCC(N)=O)NC(=O)[C@H](Cc1c[nH]cn1)NC(=O)[C@@H](NC(=O)[C@H](CCCNC(=N)N)NC(=O)[C@H](CC(=O)O)NC(=O)[C@H](CCCCNC(=O)COCCOCCNC(=O)COCCOCCNC(=O)CC[C@H](NC(=O)CCCCCCCCCCCCCCCCC(=O)O)C(=O)O)NC(=O)C(C)(C)NC(=O)[C@@H](NC(=O)[C@H](CO)NC(=O)[C@H](CC(C)C)NC(=O)[C@H](CC(=O)O)NC(=O)[C@H](CO)NC(=O)[C@@H](NC(=O)[C@H](Cc1ccccc1)NC(=O)[C@@H](NC(=O)CNC(=O)[C@H](CCC(=O)O)NC(=O)C(C)(C)NC(=O)[C@@H](N)Cc1ccc(O)cc1)[C@@H](C)O)[C@@H](C)CC)[C@@H](C)CC)[C@@H](C)CC)C(=O)N[C@@H](CCC(N)=O)C(=O)N[C@@H](Cc1c[nH]c2ccccc12)C(=O)N[C@@H](CC(C)C)C(=O)N[C@@H](CC(C)C)C(=O)N[C@@H](C)C(=O)N[C@@H](CCC(N)=O)C(=O)NCC(=O)N1CCC[C@H]1C(=O)N[C@@H](CO)C(=O)N[C@@H](CO)C(=O)NCC(=O)N[C@@H](C)C(=O)N1CCC[C@H]1C(=O)N1CCC[C@H]1C(=O)N1CCC[C@H]1C(=O)N[C@@H](CO)C(N)=O [SEQ ID NO: 35, H2N-Y-Aib-E-G-T-F-I-S-D-L-S-I-Aib-K[{AEEA}2-gGlu-C18OH]-DRIHQEEFIQWLLAQGPSSGAPPPS-NH2] (H-Y[Aib]EGTFISDLSI[Aib]K([AEEA-AEEA-γGlu-C18 diacid])DRIHQEEFIQWLLAQGPSSGAPPPS-NH2)
AUC(0-t) ([2]; in vivo, iv, 0.25 mg/kg): 12800 ng·h/mL | Cmax ([2]; in vivo, iv, 0.25 mg/kg): 1850 ng/mL | clearance ([2]; in vivo, iv, 0.25 mg/kg): 0.325 mL/min/kg | half-life ([2]; in vivo, iv, 0.25 mg/kg): 6.19 h | AUC(0-t) ([2]; in vivo, sc, 0.5 mg/kg): 21800 ng·h/mL | Cmax ([2]; in vivo, sc, 0.5 mg/kg): 1400 ng/mL | bioavailability ([2]; in vivo, sc, 0.5 mg/kg): 86% | half-life ([2]; in vivo, sc, 0.5 mg/kg): 6.97 h | Blood glucose concentration AUC (C57Bl/6 mice; Example 14 study, 3 nmol/kg s.c. 6 h before i.p. glucose, vehicle 24.44): +24.41 ± 0.743 mmol/L* 0-2 h | Incremental blood glucose concentration AUCi (C57Bl/6 mice; Example 14 study, 3 nmol/kg s.c., vehicle 5.22): +5.57 ± 0.454 mmol/L* 0-2 h | Blood glucose concentration AUC (C57Bl/6 mice; Example 14 study, 10 nmol/kg s.c. 6 h before i.p. glucose, vehicle 24.44): +20.67 ± 0.516 mmol/L* 0-2 h | Incremental blood glucose concentration AUCi (C57Bl/6 mice; Example 14 study, 10 nmol/kg s.c., vehicle 5.22): +5.05 ± 0.432 mmol/L* 0-2 h | Blood glucose concentration AUC (C57Bl/6 mice; Example 14 study, 30 nmol/kg s.c. 6 h before i.p. glucose, vehicle 24.44): +18.45 ± 0.308 mmol/L* 0-2 h | Incremental blood glucose concentration AUCi (C57Bl/6 mice; Example 14 study, 30 nmol/kg s.c., vehicle 5.22): +3.03 ± 0.225 mmol/L* 0-2 h | Blood glucose concentration AUC (C57Bl/6 mice; Example 14 study, 100 nmol/kg s.c. 6 h before i.p. glucose, vehicle 24.44): +15.17 ± 0.452 mmol/L* 0-2 h | Incremental blood glucose concentration AUCi (C57Bl/6 mice; Example 14 study, 100 nmol/kg s.c., vehicle 5.22): +1.76 ± 0.222 mmol/L* 0-2 h | minimal effective dose for improvement of i.p. glucose tolerance (C57Bl/6 mice): 10 to 30 nmol/kg
